Non-standard residues stand in square brackets, D forms with d. No end group written: not given here. *: point of attachment. pT = C[C@@H](OP(=O)(O)O)[C@H](N)C(=O)O; Myristoyl = CCCCCCCCCCCCCC(=O)*
Columns and labels:
DRG neurons = assay: Current-clamp action potential firing in cultured DRG neurons; type: cell-based, rat
Description: (§1) Primary DRG neuronal cultures—Timed-pregnant Sprague-Dawley rats (Harlan, Indianapolis, Ind.) were used for culturing neurons. On the day of the dissection, rats were euthanized by CO2 asphyxiation and E15 embryos were extracted. DRG neurons were dissected from the embryos and enzymatically digested with Trypsin (2.5 mg/ml) at 37° C. for 45 min, followed by dissociation and plating. DRG neurons were plated onto poly-D-lysine (Sigma; 100 μg/ml) and laminin (Invitrogen; 3 μg/ml) coated coverslips. Neurons were maintained at 37° C. in a 7% CO2 humidified incubator in serum-free medium, comprised of the trophic factors N2 (Gemini Bio products; 1%), I-Glutamine (Invitrogen; 200 sg/ml), and Nerve Growth Factor (NGF) (Harlan; 100 ng/ml; essential for embryonic neuronal survival) in 50% DMEM and 50% F-12. The reliance of embryonic DRG neurons on NGF selects for the small-diameter population that is thought to underlie nociception and thermoception. Two successive days after DRG dissection, DRG neurons were cultured in C2 media containing the anti-mitotic agent cytosine β-d-arabinofuranoside hydrochloride (Sigma; 3 μM). This was followed by two days of recovery were neurons received regular serum free media before neurons were used for experiments. All subsequent experiments using embryonic cultures were performed on days 5-10 of neuronal culture.
Electrophysiology—All data was acquired using the Axopatch 200B amplifier (Molecular Devices,) and Multiclamp-700B (Molecular Devices, Sunnyvale, Calif.), digitized and filtered at 5 kHz. Data acquisition was monitored and controlled using pClamp 10 (Molecular Devices). Whole-cell patch-clamp recordings were performed on cultured DRG neurons, and CHO cells transiently transfected with WT or mutated Slack with Magi-1. Glass electrodes were pulled using a vertical pipette puller (Narishige International USA, Amityville, NY) and fire polished to be of 5-8 MΩ resistance. Pipettes were filled with solution containing (in mM) 124 K-gluconate, 2 MgCl2, 13.2 NaCl, 1 EGTA, 10 HEPES, 4 Mg-ATP, and 0.3 Na-GTP at pH 7.2 for neuronal recordings, and with 32.5 mM KCl, 97.5 mM potassium gluconate, 5 mM EGTA and 10 mM HEPES (pH 7.2) for CHO cell Slack and Slick recordings. […] In voltage-clamp mode, macroscopic currents were recorded at voltages ranging from −120 to +120. […] The cell capacitance for CHO cells ranged from 10-15 pF and for cultured DRG neurons 20-25 pF recorded under these conditions. […] Firing frequency of individual neurons was assessed by measurement of repetitive discharge upon injecting of a supra-threshold stimulus of 400 pA for 1000 ms. […] For TTX-resistant INa, DRG neurons were recorded in a bath solution containing 250 nM TTX. DRG neurons were recorded at voltages ranging from −60 to +60 mV. […]

Slack KNa channel = assay: Surface biotinylation of Slack channel in cultured DRG neurons; type: cell-based, rat; conditions: 24 hrs after PDZ peptide incubation, vs scrambled peptide B
Description: (§2) Western Blot Analysis—Total proteins were collected from transfected CHO cells, spinal cord and DRG. Tissue was homogenized in RIPA buffer supplemented in protease inhibitor cocktail (Sigma). Immunoblotting was performed as previously described. Briefly, proteins were separated on 4-15% Mini-PROTEAN TGX Precast Gel (Bio-Rad) and transferred to a 0.45 μm nitrocellulose membrane (BioRad). Membranes were probed overnight at 4° C. with antibodies against Slack anti-mouse (1:500; NeuroMab), rabbit anti-β-Actin (1:500; Millipore), rabbit anti-Magi-1 (1:100; Abcam), mouse anti-Magi-1 (1:100; Novus Biochemical), mouse anti-NaV1.8 (1:200; NeuroMab), mouse anti-NaV1.7 (1:200; NeuroMab), mouse anti-Flag (1:500; Sigma) in 5% milk prepared in 1×Tris-buffered saline tween (TBST). On the following day, the membrane was washed three times for five minutes in 1×TBST before being incubated for 1 hour at room temperature in Anti-mouse or Anti-rabbit horseradish peroxidase conjugate (1:5000; Promega) and 0.1% BSA prepared in 1×PBS. The membrane was again washed 3 times for 5 minutes before being developed and imaged. Bands were visualized with enhanced chemiluminescence (Thermo Scientific) and quantified with Image J Software (NIH). Each experiment was repeated at least three times.
(§3) Surface Protein Biotinylation—Plasma membrane protein expression was detected using a protein biotinylation assay. […]

INa in DRG neurons = assay: Whole-cell voltage-clamp recording of inward sodium current (INa); type: cell-based, rat; conditions: for INa (total / peak): 10 μM peptide, 24 hrs
Description: as §1, with “All subsequent experiments using embryonic cultures were performed on days 5-10 of neuronal culture.” left out
Electrophysiology—All data was acquired using the Axopatch 200B amplifier (Molecular Devices,) and Multiclamp-700B (Molecular Devices, Sunnyvale, Calif.), digitized and filtered at 5 kHz. Data acquisition was monitored and controlled using pClamp 10 (Molecular Devices). […] In voltage-clamp mode, macroscopic currents were recorded at voltages ranging from −120 to +120. […] The cell capacitance for CHO cells ranged from 10-15 pF and for cultured DRG neurons 20-25 pF recorded under these conditions. […] Firing frequency of individual neurons was assessed by measurement of repetitive discharge upon injecting of a supra-threshold stimulus of 400 pA for 1000 ms. […] For TTX-resistant INa, DRG neurons were recorded in a bath solution containing 250 nM TTX. DRG neurons were recorded at voltages ranging from −60 to +60 mV. […]

[1] = Formalin test of acute inflammatory pain; type: in vivo, mice; conditions: single i.pl. injection 100 μM, 20 μl, 24 hrs before 5% formalin; vs scrambled peptide
From the text: In vivo transfection with jetPEI®/Magi-1 shRNA plasmid DNA polyplexes—The spinal nerve injection protocol was adopted from and optimized for spinal nerve injection in mice. Three days after baseline thermal behavior was established, mice were anesthetized using isoflurane (induction: 4% and maintenance: 2%), and placed in a prone position. A 3-cm posterior longitudinal skin incision was made at the lumbar segment of the spine. The ipsilateral paraspinal muscles were carefully separated, using a pair of sterile toothpicks, from their attachments at the L4˜S1 levels of the vertebral column. 1.5 μl of PEI/shRNA plasmid DNA polyplexes at an N/P ratio of 6 were injected directly in the spinal nerve of the right hind paw slowly using a syringe connected to a 26-gauge needle (Hamilton 80030, Hamilton, Reno, NV). Magi-1 shRNAs and control shRNA were purchased from Santa Cruz Biotechnology (Santa Cruz, CA, USA) and were identical to the siRNA sequences described above. After injection, the needle was held at the spinal nerve for 1 min to prevent leakage. […]
Formalin test—Mice were habituated in the behavior room for 15 minutes, then 30 minutes in the formalin chamber before formalin injection. […] The total time spent lifting, the total number of licks, and the number of flinches were recorded in 5 minute intervals for 60 minutes. […]

NaV1.8 = assay: Surface biotinylation / Western blot of NaV1.8 in cultured DRG neurons; type: cell-based, rat; conditions: 10 μM peptide, 24 hrs
Description: as §2
Surface Protein Biotinylation—Plasma membrane protein expression was detected using a protein biotinylation assay. Briefly, CHO cells or DRG neurons in six-well plates were used at 48 h after transient transfection of plasmid constructs or Magi-1 targeting siRNA respectively. For peptide incubation, neurons were incubated for 24 hrs. 160 μl of 10 mM Sulfo-NHS-SS-Biotin (Thermo Scientific) was added to each well and incubated at room temperature for 45 mins. The biotinylation reaction was terminated using 10 mM glycine (Quenching solution). Cells were harvested, washed in TBS and lysed on ice for 30 minutes in a lysis buffer/protease inhibitor cocktail. Lysates were collected and incubated with 500 uL of NeutrAvidin Agarose for 60 mins at room temperature with rotation. Following incubation, the column underwent centrifugation to collect the unbiotinylated protein. To elute the biotinylated proteins, sodium dodecyl sulfate (SDS) and dithiothreitol (DDT) were added to column membrane and incubated with rotation for 1 hour at room temperature. Biotinylated and unbiotinylated samples were probed for Slack or NaV1.8 and Actin protein by Western blot, as described above.

NaV1.7 = assay: Surface biotinylation of NaV1.7 in cultured DRG neurons; type: cell-based, rat; conditions: peptide treatment 24 hrs
Description: as §2, §3

Row | Substance | neurons exhibiting repetitive firing (DRG neurons; PDZ peptide treated, suprathreshold stimulation 400 pA, 1000 ms) | Slack surface expression (Slack KNa channel) | neurons with AP firing almost completely abolished (DRG neurons; 10 μM peptide, 24 hrs) | INa (total / peak) (INa in DRG neurons) | decrease in INa density (INa in DRG neurons; PY peptide incubation, 6 hours) [%] | Phase II acute inflammatory pain (formalin) [1] | NaV1.8 channels at the plasma membrane (surface expression) (NaV1.8) | total NaV1.8 protein (NaV1.8) | surface (biotinylated) NaV1.7 membrane expression (NaV1.7) | neurons firing one action potential followed by firing accommodation (DRG neurons; suprathreshold stimulation 400 pA, 1000 ms) | neurons with repetitive AP firing (DRG neurons; 10 μM peptide, 24 hrs, suprathreshold stimulation 400 pA, 1000 ms)
1 | NPETRDETQL [PDZ peptide] | 11/21 | decreased | – | – | – | – | – | – | – | – | –
2 | myristoyl-SATSFPPSYDSVTRG (Myristoyl-SATSFPPSYDSVTRG) [PY peptide] | – | – | 10 of 11 | almost complete loss | 50 | significantly reduced | substantial decrease | substantial decrease | unaltered | – | –
3 | myristoyl-QPNTRLDETE (Myristoyl-QPNTRLDETE) [Scrambled peptide B, reference compound] | – | – | – | – | – | – | – | – | – | 23/23 | –
4 | myristoyl-SATSFPPSYDSV[pT]RG (Myristoyl-SATSFPPSYDSV[pT]RG) [phospho-PY peptide] | – | – | – | strongly increased | – | increase | significant increase | a statistically significant increase in input levels of NaV1.8 protein over 24 hours was not observed | unaltered | – | 7 of 12

From US12077610B2, “Peptides and other agents for treating pain and increasing pain sensitivity” (The Research Foundation for The State University of New York, priority 2017, dated 2024)
